One assay has as its system one-year-old mouse disc. To be noted: in vitro; cited from earlier work.
In assay [1] the test system is SHH signaling pathway in the intervertebral disc. The assay can be described thus: Intraperitoneal SAG in adult mice, real-time RT-qPCR of lumbar discs for SHH and its downstream targets. To be noted: i.p., 10 mg/kg body weight, every day for seven days, vs water. The class given is in vivo, mouse. The protocol:
To test the potential for activation of SHH or SHH signaling for disc therapy and treatment of lower back pain, a small molecule agonist of hedgehog signaling pathway called SAG that activates the smoothened receptor downstream of the ligand was administered to mice. Adult mice were administered intraperitoneally either with water or SAG dissolved in water at a concentration of with 10 mg/kg body weight. The mice were treated every day for seven days. Next day, the lumbar discs were collected for RNA isolation and real-time RT-qPCR analysis for SHH and its downstream targets. […] Upregulation of SHH mRNA expression was also associated with an increase in the expression of its downstream targets Ptch1 and Gli1.

For assay [2] the test system is unchanged. The description is as above. To be noted: middle-aged mice, intraperitoneal injection. The class given is in vivo, mouse.

The text below walks through data of patent US11690834B2, “Composition, uses, and methods of treating spinal disc degeneration through sonic hedgehog signaling pathway” (New York Society For the Relief Of The Ruptured and …, priority 2017, dated 2023).

“Also recorded” adds a separate entry of the source.

For the compound `O=C1Nc2cc(Br)ccc2/C1=C1/Nc2ccccc2/C1=N\O` [BIO], in the assay on one-year-old mouse disc, the ECM production result was “increased”, the “increase in cell proliferation” value is reported as “Not observed” and the “stimulation of Hedgehog signaling” value is “increased”.
For the compound `CNC1CCC(N(Cc2cccc(-c3ccncc3)c2)C(=O)c2sc3ccccc3c2Cl)CC1` (stereo not drawn) [SAG], in assay [1], the “expression of ECM marker Col2” value is on record as “increased expression; also recorded: upregulation”, the “expression of ECM marker Sox9” value is recorded as “increased expression; also recorded: upregulation”, the “expression of downstream target Gli1” value was “increase; also recorded: upregulation” and the “expression of downstream target Ptch1” value is reported as “increase; also recorded: upregulation”. For the same compound, in assay [1], the “mRNA expression of SHH compared to controls” value is “increased; also recorded: up-regulation”. For the same compound, in assay [2], the “expression of ECM protein ACAN” value is “upregulation”.
